Laboratory results published in US20100298376A1, “USE OF NOVEL NEUROPROTECTIVE 3-SUBSTITUTED INDOLONE COMPOSITIONS” (BOARD OF REGENTS, THE UNIVERSITY OF TEXAS SYSTEM, priority 2009, published 2010).
Like-named read-outs stand apart in the source and are kept apart here.

Test system: cerebellar granule neurons
Conditions: for % neuronal survival Mean ± SD: Table 1, 24 hours, percent of HK control
Procedure: These compounds were analyzed for their neuroprotective activity in vitro. Granule neuron cultures were obtained from dissociated cerebella of 7-8 day old Wistar rats as known to one of ordinary skill in the art. Cells were plated in Basal Eagle's Medium with Earles salts (BME) supplemented with 10% fetal calf serum (FCS), 25 mM KCl, 2 mM glutamine (Invitrogen), and 100 μg/ml gentamycin on dishes (Nunc) coated with poly-L-lysine in 24-well dishes at a density 1×10^6 cells/well. Cytosine arabinofuranoside (10 μM) was added to the culture medium 18-22 hours after plating to prevent replication of non-neuronal cells that yields highly pure culture of granule neurons. The neuronal cultures were maintained for 7-8 days prior to treatments.
This experimental model of neuronal apoptosis has been used widely used to understand the molecular mechanisms underlying neurodegeneration and to identify biological and chemical agents with neuroprotective efficacy. For this, the cells were rinsed once and then maintained in low K^+ medium (serum-free BME medium, 5 mM KCl; referred to as LK), or in the case of control cultures, in high K^+ medium (serum-free BME medium, supplemented with 20 mM KCl; referred to as HK). Each compound was tested at three different concentrations of 1 μM, 5 μM, and 25 μM. The 25 μM concentration was included to evaluate neurotoxicity. For treatments, the chemical compounds (dissolved in dimethylsulfoxide) were added directly to LK medium at the time of the switch from HK at concentrations of 1 μM, 5 μM, or 25 μM. Viability was assessed 24 hours later. Each compound was tested in duplicate (at each of the concentrations) and the experiment repeated at least 3 times. Although all compounds were solubilized in dimethylsulfoxide (DMSO), the amount of DMSO in the cultures never exceeded 0.1% (v/v).
The viability status of neuronal cultures treated with HK, LK, or LK medium supplemented with various compounds was evaluated by phase contrast microscopy and quantified by staining cell nuclei with 4′,6′-diamidino2-phenylindole hydrochloride (DAPI). Briefly, the cells were fixed in 4% paraformaldehyde for 20 minutes at 4′C. After washing in phosphate buffered saline, DAPI (1 μg/ml in phosphate buffered saline) was added for 15 min at room-temperature and viewed under ultraviolet light (260 nm). Cells with condensed or fragmented nuclei were scored as dead. […] Statistical analysis was performed using an unpaired, two-tailed Student's t test, compared to mean neuronal survival of control cultures receiving LK treatment and the quantitative data are presented in Tables 1 and 2 for each compound.

[1] = LK medium, concentration not specified

SMILES	% neuronal survival Mean ± SD (1 μM in LK medium) [%]	% neuronal survival Mean ± SD (5 μM in LK medium) [%]	% neuronal survival Mean ± SD (25 μM in LK medium) [%]	neuroprotective activity (in words) (at all three concentrations)	neuroprotective activity (in words) [1]	neurotoxicity (in words)
O=C1Nc2ccccc2/C1=C\c1cc(Br)cc(Br)c1 [Compound 2, (E)-3-(3′,5′-Dibromobenzylidene)indolin-2-one]	54.7 ± 5.32	45.4 ± 4.32	46.9 ± 12.30	not protective		
COc1cc(/C=C2\C(=O)Nc3ccccc32)cc(OC)c1OC [Compound 3, (Z)-3-(3′, 4′,5′-Trimethoxybenzylidene)indolin-2-one]	50.8 ± 7.50	59.9 ± 7.98	61.3 ± 11.35	not protective	reduced activity	
O=C1Nc2ccccc2C1=CC=Cc1ccccc1 [Compound 4, 3-(3′-Phenylallylidene)indolin-2-one]	86.0 ± 2.03	83.6 ± 18.88	81.1 ± 6.22	moderately efficacious	moderately protective	non-toxic
O=C1Nc2ccccc2/C1=C\c1c(Cl)cccc1Cl [Compound 5, (E)-3-(2′,6′-Dichlorobezylidene)indolin-2-one]	54.6 ± 10.27	52.9 ± 3.94	24.5 ± 12.38		ineffective	toxic
O=C1Nc2ccccc2/C1=C/c1ccccc1[N+](=O)[O-] [Compound 6]	75.8 ± 3.20	76.6 ± 7.14	81.5 ± 13.72			
O=C1Nc2ccc(Cl)cc2/C1=C/c1cc(Br)cc(Br)c1 [Compound 8, (Z)-3-(3′,5′-Dibromobenzylidene)-5-chloroindolin-2-one]	77.7 ± 17.51	68.5 ± 11.86	64.4 ± 9.65		substantially less effective	
CC(=O)Oc1c(Br)cc(/C=C2/C(=O)Nc3ccc(Cl)cc32)cc1Br [Compound 9, (E)-2,6-Dibromo-4-(5′-chloro-2′-oxoindolin-3-ylidene)methyl)phenyl acetate]	73.0 ± 5.59	84.6 ± 16.19	75.2 ± 31.54		reduced activity	
COc1cc(/C=C2\C(=O)Nc3ccc(Cl)cc32)cc(OC)c1OC [Compound 10, (Z)-5-Chloro-3-(3′, 4′,5′-trimethoxybenzylidene)indolin-2-one]	81.1 ± 9.81	71.0 ± 7.26	57.1 ± 10.13			
O=C1Nc2ccc(Cl)cc2/C1=C\c1c(Cl)cccc1Cl [Compound 11, (E)-5-Chloro-3-(2′,6′-dichlorobenzylidene)indolin-2-one]	56.4 ± 14.41	63.8 ± 3.46	45.7 ± 24.05			
O=C1Nc2ccc(Cl)cc2/C1=C\c1ccccc1 [Compound 12, (E)-3-Benzylidene-5-chloroindolin-2-one]	58.6 ± 3.27	63.8 ± 8.63	41.1 ± 21.41		not effective	
Cc1ccc(/C=C2/C(=O)Nc3ccc(Cl)cc32)cc1 [Compound 13, (E)-5-Chloro-3-(4′-methybenzylidene)indolin-2-one]	70.0 ± 17.50	70.6 ± 13.86	67.4 ± 17.40			
CN(C)c1ccc(/C=C2/C(=O)Nc3ccc(Cl)cc32)cc1 [Compound 15, (E)-5-Chloro-3-(4′-(dimethylamino)benzylidene)indolin-2-one]	51.8 ± 15.66	55.8 ± 16.94	79.7 ± 4.69			
O=C1Nc2ccc(Br)cc2/C1=C/c1cc(Br)cc(Br)c1 [Compound 17, (Z)-5-Bromo-3-(3′,5′-dibromobenzylidene)indolin-2-one]	54.7 ± 8.56	45.4 ± 3.05	46.9 ± 7.74			
COc1cc(/C=C2\C(=O)Nc3ccc(Br)cc32)cc(OC)c1OC [Compound 18, (Z)-5-Bromo-3-(3′, 4′,5′-trimethoxybenzylidene)indolin-2-one]	50.8 ± 7.67	59.9 ± 12.94	61.3 ± 1.20		not effective	
COc1ccc(/C=C2/C(=O)Nc3ccc(Br)cc32)cc1 [Compound 19, (E)-5-Bromo-3-(4′-methoxybenzylidene)indolin-2-one]	57.1 ± 4.51	59.5 ± 9.10	60.5 ± 9.56		not effective	
CN(C)c1ccc(/C=C2/C(=O)Nc3ccc(Br)cc32)cc1 [Compound 20, (E)-5-Bromo-3-(4′-(dimethylamino)benzylidene)indolin-2-one]	56.5 ± 2.28	54.9 ± 9.18	68.6 ± 9.38		not effective	
O=C1Nc2ccc([N+](=O)[O-])cc2/C1=C/c1cc(Br)cc(Br)c1 [Compound 22, (Z)-3-(3′,5′-Dibromobenzylidene)-5-nitroindolin-2-one]	78.1 ± 5.82	78.7 ± 15.86	74.5 ± 9.12			
COc1cc(/C=C2\C(=O)Nc3ccc([N+](=O)[O-])cc32)cc(OC)c1OC [Compound 23, (Z)-3-(3′, 4′,5′-Trimethoxybenzylidene)-5-nitroindolin-2-one]	76.6 ± 15.98	61.9 ± 5.87	69.0 ± 11.26			
O=C1Nc2ccc([N+](=O)[O-])cc2/C1=C\c1c(Cl)cccc1Cl [Compound 24, (E)-3-(2′,6′-Dichlorobenzylidene)-5-nitroindolin-2-one]	76.4 ± 9.84	69.9 ± 11.25	70.7 ± 8.50			
O=C1Nc2ccc([N+](=O)[O-])cc2/C1=C/c1ccccc1 [Compound 25, (Z)-3-Benzylidene-5-nitroindolin-2-one]	80.1 ± 18.01	78.4 ± 17.54	54.3 ± 3.63	moderately efficacious		
O=C1Nc2ccc([N+](=O)[O-])cc2/C1=C\C=C\c1ccccc1 [Compound 26]	80.1 ± 4.21	78.6 ± 13.04	83.9 ± 9.28			
O=C1Nc2ccc([N+](=O)[O-])cc2/C1=C\C=Cc1ccccc1[N+](=O)[O-] [Compound 27]	78.6 ± 6.84	51.9 ± 7.50	78.6 ± 16.33			
Cc1ccc(/C=C2\C(=O)Nc3ccc([N+](=O)[O-])cc32)cc1 [Compound 28, (Z)-3-(4′-Methylbenzylidene)-5-nitroindolin-2-one]	54.6 ± 7.48	60.0 ± 1.87	54.3 ± 0.49			
CN(C)c1ccc(/C=C2\C(=O)Nc3ccc([N+](=O)[O-])cc32)cc1 [Compound 29, (Z)-3-(4′-(Dimethylamino)benzylidene)-5-nitroindolin-2-one]	70.4 ± 9.37	67.6 ± 10.31	66.9 ± 9.86			
O=C1Nc2ccc(F)cc2/C1=C\c1cc(Br)c(O)c(Br)c1 [Compound 30, (E)-3-(3′,5′-Dibromo-4′-hydroxybenzylidene)-5-fluoro-indolin-2-one]	49.3 ± 10.34	69.6 ± 8.96	18.1 ± 11.00		not effective	toxic
COc1cc(/C=C2\C(=O)Nc3ccc(F)cc32)cc(OC)c1OC [Compound 32, (Z)-5-Fluoro-3-(3′, 4′,5′-trimethoxybenzylidene)indolin-2-one]	59.2 ± 1.77	51.9 ± 7.14	31.9 ± 1.77		not effective	
